Tests used:
human APJ receptor = human APJ receptor (Homo sapiens (Human), UniProt P35414); experiment: biochemical; format: biochemical; details: read-out: Activity hAPJ SPA EC50 IP
Method in brief: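 Agonist-stimulated [35S]GTPγS (0.2 nM) binding was read by SPA after 90 min at room temperature. Buffer: 20 mM HEPES pH 7.5 with 5 mM MgCl2, 200 mM NaCl, 3 μM GDP, 0.1% BSA; membranes were from a stable human APJ CHO line. EC50 values are averages of independent runs, fitted by non-linear regression.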

[1] = test system: isolated perfused rat hearts; experiment: Load independent inotropic effects, ex vivo assay (isolated perfused rat hearts, Langendorff); details: percent change over vehicle
Description: Evidence for Load Independent Inotropic Effects with APJ Agonists using Ex Vivo Assay (Isolated Perfused Rat Hearts)
Naive Sprague Dawley® SD rats (Harlan laboratories (Livermore, Calif. USA)) were anesthetized and hearts were excised followed by cannulation in the Langendorff apparatus (Harvard apparatus, Holliston, Mass. USA) via aorta. […] The pressure of the solution causes the aortic valve to shut and the perfusate is then forced into the ostium and the coronary vessels. This allows the heart to beat for several h. A balloon was inserted into the left ventricle (LV) to measure dP/dtmax (derivative of left ventricular pressure) as an index of cardiac contractility. The APJ agonist was perfused constantly in a dose dependent manner into the heart to examine cardiac contractility.

[2] = test system: isolated perfused rat hearts; experiment: Langendorff isolated perfused rat heart (left ventricular dP/dt); details: ex vivo naive Sprague Dawley rat hearts, Langendorff apparatus, as a function of concentration

Chain of human APJ receptor (P35414 whole entry): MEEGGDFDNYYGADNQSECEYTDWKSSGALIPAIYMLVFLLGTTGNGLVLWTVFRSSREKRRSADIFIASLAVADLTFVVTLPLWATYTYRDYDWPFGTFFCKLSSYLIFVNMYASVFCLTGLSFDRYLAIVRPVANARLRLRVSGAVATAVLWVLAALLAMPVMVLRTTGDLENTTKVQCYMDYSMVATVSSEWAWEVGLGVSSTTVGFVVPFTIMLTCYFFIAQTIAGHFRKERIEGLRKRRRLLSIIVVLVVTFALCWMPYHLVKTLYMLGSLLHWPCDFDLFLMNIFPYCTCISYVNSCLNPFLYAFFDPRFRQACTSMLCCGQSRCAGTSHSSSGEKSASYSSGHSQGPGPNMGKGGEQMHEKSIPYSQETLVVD

Row | SMILES | EC50 (human APJ receptor) [nM] | also measured
1 | COc1cccc(OC)c1-n1c(NS(=O)(=O)[C@H](C)[C@@H](OC)c2ccc(Cl)cn2)nnc1-c1cccnc1 (single isomer, unassigned) [Example 531.0, (1S,2R)-1-(5-chloro-2-pyridinyl)-N-(4-(2,6-dimethoxyphenyl)-5-(3-pyridinyl)-4H-1,2,4-triazol-3-yl)-1-methoxy-2-propanesulfonamide or (1R,2S)-1-(5-chloro-2-pyridinyl)-N-(4-(2,6-dimethoxyphenyl)-5-(3-pyridinyl)-4H-1,2,4-triazol-3-yl)-1-methoxy-2-propanesulfonamide] | 0.2 | Isolated Heart Assay dP/dtmax (%) [1]: 4.1%; Isolated Heart Assay dP/dtmin (%) [1]: 1.9%
2 | Cc1cnc([C@@H](C)[C@H](C)S(=O)(=O)Nc2nnc(-c3cncc(C)c3)n2-c2c(F)cccc2F)nc1 [Example 826.0, (2S,3R)-N-(4-(2,6-difluorophenyl)-5-(5-methyl-3-pyridinyl)-4H-1,2,4-triazol-3-yl)-3-(5-methyl-2-pyrimidinyl)-2-butanesulfonamide, (2R,3S)-N-(4-(2,6-difluorophenyl)-5-(5-methyl-3-pyridinyl)-4H-1,2,4-triazol-3-yl)-3-(5-methyl-2-pyrimidinyl)-2-butanesulfonamide] | – | Isolated Heart Assay dP/dtmax (%) [1]: 6.02%; Isolated Heart Assay dP/dtmin (%) [1]: 5.16%
3 | COc1cccc(OC)c1-n1c(NS(=O)(=O)[C@@H](C)[C@H](O)c2ncc(C)cn2)nnc1-c1cncc(C)c1 [Example 371.0, (1R,2S)—N-(4-(2,6-dimethoxyphenyl)-5-(5-methylpyridin-3-yl)-4H-1,2,4-triazol-3-yl)-1-hydroxy-1-(5-methylpyrimidin-2-yl)propane-2-sulfonamide] | – | left ventricular dP/dtmax (load independent cardiac contractility) [2]: increases load independent cardiac contractility; left ventricular dP/dtmin (load independent cardiac relaxation) [2]: increases load independent cardiac relaxation
4 | CCO[C@H](c1ncc(F)cn1)[C@H](C)S(=O)(=O)Nc1nnc(-c2cncc(C)c2)n1-c1c(OC)cccc1OC [Example 79.0, (1R,2S)-N-(4-(2,6-dimethoxyphenyl)-5-(5-methyl-3-pyridinyl)-4H-1,2,4-triazol-3-yl)-1-ethoxy-1-(5-fluoro-2-pyrimidinyl)-2-propanesulfonamide] | 0.41 | –
5 | COc1cccc(OC)c1-n1c(NS(=O)(=O)[C@@H](C)[C@H](OC)c2ncc(Cl)cn2)nnc1-c1cccc(C)n1 [Example 88.0, (1R,2S)-1-(5-chloropyrimidin-2-yl)-N-(4-(2,6-dimethoxyphenyl)-5-(6-methylpyridin-2-yl)-4H-1,2,4-triazol-3-yl)-1-methoxypropane-2-sulfonamide] | 0.37 | –
6 | COc1cc(-c2nnc(NS(=O)(=O)[C@@H](C)[C@H](C)c3ncc(C)cn3)n2-c2c(OC)cccc2OC)ccn1 [Example 84.0, (2S,3R)-N-(4-(2,6-dimethoxyphenyl)-5-(2-methoxypyridin-4-yl)-4H-1,2,4-triazol-3-yl)-3-(5-methylpyrimidin-2-yl)butane-2-sulfonamide] | 5.2 | –
7 | COc1cccc(-c2nnc(NS(=O)(=O)[C@@H](C)[C@H](C)c3ncc(Cl)cn3)n2C2CCOCC2)n1 [Example 835.0, (2S,3R)-3-(5-chloro-2-pyrimidinyl)-N-(5-(6-methoxy-2-pyridinyl)-4-(tetrahydro-2H-pyran-4-yl)-4H-1,2,4-triazol-3-yl)-2-butanesulfonamide] | 13 | –
8 | COc1cccc(-c2nnc(NS(=O)(=O)[C@@H](C)[C@H](C)c3ccc(Cl)cn3)n2C2CCOCC2)n1 [Example 840.0, (2S,3R)-3-(5-chloro-2-pyridinyl)-N-(5-(6-methoxy-2-pyridinyl)-4-(tetrahydro-2H-pyran-4-yl)-4H-1,2,4-triazol-3-yl)-2-butanesulfonamide] | 13 | –
9 | COc1cccc(-c2nnc(NS(=O)(=O)[C@@H](C)[C@H](O)c3ccc(F)cc3)n2-c2c(OC)cccc2OC)n1 (single isomer, unassigned) [Example 284.0] | 13 | –
10 | COc1cccc(OC)c1-n1c(NS(=O)(=O)[C@@H](C)[C@H](C)c2ncc(F)cn2)nnc1-c1cccc(OCCO)n1 [Example 186.0, (2S,3R)-N-(4-(2,6-dimethoxyphenyl)-5-(6-(2-hydroxyethoxy)pyridin-2-yl)-4H-1,2,4-triazol-3-yl)-3-(5-fluoropyrimidin-2-yl)butane-2-sulfonamide] | 0.12 | –
11 | COc1cccc(-c2nnc(NS(=O)(=O)[C@@H](C)[C@H](OC)c3ncc(C)cn3)n2-c2c(OC)ncnc2OC)n1 [Example 35.0, (1R,2S)-N-(4-(4,6-dimethoxypyrimidin-5-yl)-5-(6-methoxypyridin-2-yl)-4H-1,2,4-triazol-3-yl)-1-methoxy-1-(5-methylpyrimidin-2-yl)propane-2-sulfonamide] | 0.54 | –
12 | COc1cccc(OC)c1-n1c(NS(=O)(=O)[C@@H](C)[C@H](O)c2ccc(C#N)cc2)nnc1-c1cncc(C)c1 (single isomer, unassigned) [Example 248.0] | 60 | –
13 | COc1cccc(OC)c1-n1c(NS(=O)(=O)[C@@H](C)[C@H](OC)c2ncc(C)cn2)nnc1-c1cccc(OCC(F)(F)F)n1 [Example 187.0, (1R,2S)-N-(4-(2,6-dimethoxyphenyl)-5-(6-(2,2,2-trifluoroethoxy)pyridin-2-yl)-4H-1,2,4-triazol-3-yl)-1-methoxy-1-(5-methylpyrimidin-2-yl)propane-2-sulfonamide] | 0.14 | –
14 | COc1cccc(OC)c1-n1c(NS(=O)(=O)[C@@H](C)[C@H](OC)c2ccc(F)cn2)nnc1-c1cncc(C)c1 (single isomer, unassigned) [Example 351.0] | 0.87 | –
15 | COc1cccc(-c2nnc(NS(=O)(=O)[C@@H](C)[C@@H](O)C(C)(C)C)n2-c2c(OC)cccc2OC)n1 (single isomer, unassigned) [Example 435.0, (2S,3S)—N-(4-(2,6-dimethoxyphenyl)-5-(6-methoxy-2-pyridinyl)-4H-1,2,4-triazol-3-yl)-3-hydroxy-4,4-dimethyl-2-pentanesulfonamide or (2R,3R)—N-(4-(2,6-dimethoxyphenyl)-5-(6-methoxy-2-pyridinyl)-4H-1,2,4-triazol-3-yl)-3-hydroxy-4,4-dimethyl-2-pentanesulfonamide] | 24 | –
16 | CCO[C@@H](c1ncc(Cl)cn1)[C@H](C)S(=O)(=O)Nc1nnc(-c2cncc(C)c2)n1-c1c(OC)cccc1OC (single isomer, unassigned) [Example 612.0] | 13 | –
17 | Cc1cnc([C@@H](C)[C@H](C)S(=O)(=O)Nc2nnc(-c3cccc(C)n3)n2-c2c(F)cccc2F)nc1 [Example 783.0, (2S,3R)-N-(4-(2,6-difluorophenyl)-5-(6-methyl-2-pyridinyl)-4H-1,2,4-triazol-3-yl)-3-(5-methyl-2-pyrimidinyl)-2-butanesulfonamide] | 4.2 | –
18 | COc1cccc(OC)c1-n1c(NS(=O)(=O)[C@@H](C)[C@H](C)c2ncc(F)cn2)nnc1-c1cncc(C)c1 (single isomer, unassigned) [Example 234.0] | 16 | –
19 | COc1cccc(OC)c1-n1c(NS(=O)(=O)C[C@@H](O)C2CCC2)nnc1-c1cncc(C)c1 (mixture of isomers) [Example 382.0, (R)-2-cyclobutyl-N-(4-(2,6-dimethoxyphenyl)-5-(5-methylpyridin-3-yl)-4H-1,2,4-triazol-3-yl)-2-hydroxyethanesulfonamide and (S)-2-cyclobutyl-N-(4-(2,6-dimethoxyphenyl)-5-(5-methylpyridin-3-yl)-4H-1,2,4-triazol-3-yl)-2-hydroxyethanesulfonamide] | 73 | –
20 | COc1cccc(OC)c1-n1c(NS(=O)(=O)[C@@H](C)[C@H](O)c2nc(C)c(C)s2)nnc1-c1cncc(C)c1 (single isomer, unassigned) [Example 291.0] | 1.8 | –
21 | COc1cccc(-c2nnc(NS(=O)(=O)[C@@H](C)[C@H](O)c3cnc(C)cn3)n2-c2c(OC)cccc2OC)n1 (single isomer, unassigned) [Example 578.0, (1R,2S)—N-(4-(2,6-dimethoxyphenyl)-5-(6-methoxy-2-pyridinyl)-4H-1,2,4-triazol-3-yl)-1-hydroxy-1-(5-methyl-2-pyrazinyl)-2-propanesulfonamide or (1S,2R)—N-(4-(2,6-dimethoxyphenyl)-5-(6-methoxy-2-pyridinyl)-4H-1,2,4-triazol-3-yl)-1-hydroxy-1-(5-methyl-2-pyrazinyl)-2-propanesulfonamide] | 2.7 | –
22 | COc1ncnc(OC)c1-n1c(NS(=O)(=O)[C@@H]2C[C@H](OC)CN(c3ncc(F)cn3)C2)nnc1-c1cccnc1 (stereo in doubt) [Example 813.0, (3S,5R)-N-(4-(4,6-dimethoxy-5-pyrimidinyl)-5-(3-pyridinyl)-4H-1,2,4-triazol-3-yl)-1-(5-fluoro-2-pyrimidinyl)-5-methoxy-3-piperidinesulfonamide, (3R,5S)-N-(4-(4,6-dimethoxy-5-pyrimidinyl)-5-(3-pyridinyl)-4H-1,2,4-triazol-3-yl)-1-(5-fluoro-2-pyrimidinyl)-5-methoxy-3-piperidinesulfonamide] | 140 | –

— patent US10058550B2, “Methods of treating heart failure” (priority 2015, dated 2018)
